From patent US20220073532A1, “INHIBITORS OF CGAS ACTIVITY AS THERAPEUTIC AGENTS” (BELLBROOK LABS, LLC, priority 2019, published 2022)
“Also recorded” adds a separate entry of the source. Like-named read-outs stand apart in the source and are kept apart here. Each block holds one molecule with its values, some of them ahead of it.

Assays:
[1] = test system: IRF3-driven Luc expression in THP-1 Dual cells; assay: THP-1 Dual IRF3-Luc reporter assay; type: cell-based, human; settings: for cGAS-dependent cellular activity: human monocyte cell line THP-1; for inhibition of IRF3-dependent Luc expression: THP-1 Dual cells, induced by DNA or cGAMP
Protocol: (§1) IFN induction in human monocyte cell lines: The human monocyte cell line THP-1 gives a robust cGAS/STING-dependent type I IFN response and has been used extensively for studies on the pathway. Typically, cells are stimulated by transfection with dsDNA and gene expression is assessed using an ELISA for IFNβ, a reporter gene assay, and/or cGAS/STING pathway markers such as STING phosphorylation. These assays were validated using the TBK1 inhibitor, BX-795, which acts downstream of cGAS/STING, as a probe; THP-1 Dual cells (Invivogen, San Diego) are used as the reporter cell line for routine compound testing (FIG. 5A). These assays were optimized, including equalizing responses with transfected DNA and cGAMP and comparing responses between undifferentiated cells and cells that have been differentiated to macrophages (which show little difference). […] Stimulation of THP-1 Dual cells with damage-associated molecular pattern molecules (DAMPs) that act through pattern recognition receptors other than cGAS provides another way to confirm the specificity of putative cGAS inhibitors.

[2] = test system: NFκB-driven SEAP expression in THP-1 Dual cells; assay: THP-1 Dual NFκB-SEAP reporter assay; type: cell-based, human
Protocol: as §1

[3] = test system: IFNβ expression in THP-1 cells; assay: IFNβ ELISA in THP-1 cells; type: cell-based, human
Protocol: as §1

[4] = test system: interferon-sensitive gene (ISG) expression in THP1-dual cells; assay: ISG mRNA expression by RT-PCR in THP1-dual cells; type: cell-based, human; settings: 24 hours, normalized to β-actin
Protocol: FIG. 6A illustrates activity of IFNβ expression of the compounds of disclosure. FIG. 6B illustrates inhibition of reporter genes from cGAS/STING-driven promoters of compound 28 in THP1-dual cells. FIG. 6C illustrates the ISG mRNA expression of compound 28 in THP1-dual cells. Compound 28 in concentration of 200 μM was evaluated after 24 hours. The results were normalized to β-actin.

cGAS [5] = target: T1, cGAS (Homo sapiens, UniProt Q8N884); assay: cGAS enzymatic assay (FP/TR-FRET detection of cGAMP); type: biochemical; parameters: The cGAS assay was used to screen 100,000 compounds with full-length human cGAS; 6xHis; made in house
T1 sequence (Q8N884 whole entry): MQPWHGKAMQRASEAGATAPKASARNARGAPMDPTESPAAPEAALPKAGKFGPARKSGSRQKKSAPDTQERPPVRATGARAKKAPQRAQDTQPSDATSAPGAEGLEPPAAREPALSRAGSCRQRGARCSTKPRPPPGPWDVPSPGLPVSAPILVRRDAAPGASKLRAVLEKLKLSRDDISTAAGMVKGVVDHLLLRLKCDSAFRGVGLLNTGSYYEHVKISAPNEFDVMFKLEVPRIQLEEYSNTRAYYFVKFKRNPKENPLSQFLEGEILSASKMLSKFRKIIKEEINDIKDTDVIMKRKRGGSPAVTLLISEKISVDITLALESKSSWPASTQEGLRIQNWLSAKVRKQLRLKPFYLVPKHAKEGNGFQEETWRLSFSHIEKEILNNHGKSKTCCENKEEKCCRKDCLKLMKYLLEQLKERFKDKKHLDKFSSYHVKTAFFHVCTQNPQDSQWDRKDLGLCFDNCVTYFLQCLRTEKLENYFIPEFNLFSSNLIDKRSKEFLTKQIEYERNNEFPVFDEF
Protocol: Some exemplary compounds of the disclosure were tested for inhibition of cGAS (30 nM). The results are provided in Table 1 where “A” indicates an IC50 of less than 100 nM, “B” indicates an IC50 of greater than 100 nM and less than 500 nM, “C” indicates an IC50 of greater than 500 nM and less than 1 μM, “D” indicates an IC50 of greater than 1 μM and less than 10 μM, and “E” indicates an IC50 of greater than 10 μM.
A homogenous cGAS enzymatic assay was developed with fluorescence polarization (FP) and time-resolved Forster resonance energy transfer (TR-FRET) readouts (FIG. 2A-2D). The cGAS assay was used to screen 100,000 compounds with full-length human cGAS (FIG. 2E), resulting in the identification of the novel chemotype of the disclosure, two of which are further developed in a structure-driven hit-to-lead study (Table 3, below). The assay performance was robust, as indicated by respective Z and Z′ values of 0.59 and 0.63 in the screen; compounds with polarization values greater than three SDs from the mean were considered hits; a scatterplot from 10 plates (3,200 compounds) is shown in FIG. 2D.
Biochemical and biophysical analysis: Potency and MOA studies, including Mn^2+ sensitivity, are performed using the cGAS enzymatic assay. Dose response experiments are used to determine IC50 values under basal conditions (5 mM MgCl2, 100 μM ATP/GTP), and with the addition of physiological levels of Mn (0.2 mM) using human and mouse cGAS. Ligand optimization is driven by potency with the human enzyme; potency with mouse cGAS informs selection of an appropriate disease model for efficacy studies. Competition with ATP and GTP is assessed by comparing basal IC50 values to those in the presence of saturating ATP or GTP, and subsequently confirmed by measuring velocity vs. substrate at varying ATP or GTP levels. Inhibitor residence times (1/koff) are used as a key parameter for prioritizing compounds and driving SAR, because a longer residence time often results from an allosteric mechanism, and can also correlate with improved cellular activity. The cGAS enzymatic assay is used with the jump dilution method to measure residence times (inhibitor dissociation rates), as described for kinases using the very similar ADP assay. Biophysical methods, including SPR and TSA, are used as orthologous methods for residence time measurements and kd estimates.

cGAS [6] = target: T1, cGAS; assay: SPR / biophysical binding to cGAS; settings: SPR; read-out: Kd determined with SPR
From the text: Following confirmation of hits at three concentrations and removal of compounds with visually evident reactivity or metabolic liabilities, non-stoichiometric inhibitors, aggregators, DNA intercalators and redox-active compounds were triaged (FIG. 2E) using established assays. […] Initial SAR based on more than 100 commercially available analogs provided additional confidence that the compounds were bonafide inhibitors, and informed potential scaffold hops and toleration for modifications.
A highly efficient platform for preclinical drug discovery (FIG. 3) was assembled, providing for development of cGAS inhibitors, which is improved by the addition of a powerful computational modeling method and in vivo PK studies (FIG. 3). […]
Biochemical and biophysical analysis: Potency and MOA studies, including Mn^2+ sensitivity, are performed using the cGAS enzymatic assay. […] Competition with ATP and GTP is assessed by comparing basal IC50 values to those in the presence of saturating ATP or GTP, and subsequently confirmed by measuring velocity vs. substrate at varying ATP or GTP levels. […]

THP1 cGAS KO cells = assay: Specificity test in THP-Dual cGAS knockout cells; type: cell-based, human; settings: LPS-stimulated, cGAS KO
From the text: FIG. 5 includes (A) a schematic showing the THP1 dual-cell reporter system: secreted luciferase reports on IRF3-driven transcription; secreted alkaline phosphatase reports on NFκB-driven transcription, both downstream of cGAS/STING. THP-Dual cGAS knockout cells are used to test for non-specific effects; (B) a plot of the dose response for inhibition of Luc expression by Compound 15; (C) a plot of the dose response for inhibition of Luc expression by the TBK1 inhibitor, BX-795; and (D) a plot of the dose response for inhibition of SEAP expression by Compound 15.
as §1

[7] = cGAS (30 nM), read-out: Inhibition cGAS
[8] = cGAS (30 nM), with Mn^2+, read-out: Inhibition cGAS + Mn^2+

IC50 ([1]; Homo sapiens, THP1-dual cells, read-out: Cellular IRF3-Luc IC50): 20000 nM | IC50 ([2]; Homo sapiens, THP1-dual cells, read-out: Cellular NFκB-SEAP IC50): 9000 nM | IC50 ([3]; Homo sapiens, read-out: Cellular IFNβ ELISA IC50): 13000 nM | IC50 (cGAS [5]; 100 μM ATP/GTP, read-out: Enzymatic FP Std (100 μM ATP/GTP) IC50): 356 nM | IC50 (cGAS [5]; 1 mM ATP/GTP, read-out: Enzymatic FP Physiological (1 mM ATP/GTP) IC50): 3250 nM | IC50 (cGAS [5]; [7]): 100 to 500 nM
SMILES: Cc1nc(N2C[C@@H](CC(=O)Nc3ccncc3)C[C@H]2C(=O)O)c2oc3ccccc3c2n1 [Compound 28, (2S,4R)-1-(2-methylbenzofuro[3,2-d]pyrimidin-4-yl)-4-(2-oxo-2-(pyridin-4-ylamino)ethyl)pyrrolidine-2-carboxylic acid]
inhibition of IFNβ expression [3]: reproducible inhibition; also recorded: inhibit IFNβ expression | specificity: DNA- versus cGAMP-stimulated cells [3]: specific for DNA-stimulated cells; also recorded: more potent inhibition of cells stimulated with DNA than those stimulated with cGAMP | ISG expression (fold decrease @ 200 μM) [4]: 2-3×

Kd (cGAS [6]): 2400 nM | IC50 (cGAS [5]; 5 mM Mg^2+, 0.2 mM Mn^2+, read-out: IC50 (5 mM Mg^2+, 0.2 mM Mn^2+)): 19000 nM | IC50 (cGAS [5]; 5 mM Mg^2+, read-out: IC50 (5 mM Mg^2+)): 2600 nM | IC50 (cGAS [5]; [8]): > 10000 nM | IC50 (cGAS [5]; [7]): 1000 to 10000 nM | IC50 (cGAS [5]; read-out: IC50 in the cGAS enzymatic assay): 1260 nM
SMILES: CCc1nc(N2CCC[C@H]2C(=O)O)c2oc3ccccc3c2n1 [Compound 1, (2-ethylbenzofuro[3,2-d]pyrimidin-4-yl)-L-proline]

IC50 (cGAS [5]; [8]): > 10000 nM | IC50 (cGAS [5]; [7]): 1000 to 10000 nM
SMILES: Cc1nc(N[C@@H](CCC(=O)O)C(=O)O)c2oc3ccccc3c2n1 [Compound 24, (2-methylbenzofuro[3,2-d]pyrimidin-4-yl)glutamic acid]

IC50 (cGAS [5]; [7]): 500 to 1000 nM
SMILES: Cc1nc(N2C[C@@H](NC(=O)Cc3cn[nH]c3)C[C@H]2C(=O)O)c2oc3ccccc3c2n1 [Compound 32, (2S,4S)-4-(2-(1H-pyrazol-4-yl)acetamido)-1-(2-methylbenzofuro[3,2-d]pyrimidin-4-yl)pyrrolidine-2-carboxylic acid]

The next lines start with the molecule.

SMILES: CCN(CC)CCCC(C)Nc1c2ccc(Cl)cc2nc2ccc(OC)cc12 (centres unmarked) [quinacrine, reference compound]
cGAS-dependent cellular activity [1]: not observed

SMILES: Cc1ccc(C(=O)Nc2ccc(S(=O)(=O)O)c3cc(S(=O)(=O)O)cc(S(=O)(=O)O)c23)cc1NC(=O)c1cccc(NC(=O)Nc2cccc(C(=O)Nc3cc(C(=O)Nc4ccc(S(=O)(=O)O)c5cc(S(=O)(=O)O)cc(S(=O)(=O)O)c45)ccc3C)c2)c1 [suramin, reference compound]
cGAS-dependent cellular activity [1]: not observed

SMILES: CCN(CCO)CCCC(C)Nc1ccnc2cc(Cl)ccc12 (centres unmarked) [hydroxychloroquine, reference compound]
cGAS-dependent cellular activity [1]: not observed

SMILES: Cc1nc(N2C[C@@H](Nc3n[nH]cc3C3CC3)C[C@H]2C(=O)O)c2oc3ccccc3c2n1 [Compound 53, (2S,4S)-4-((4-cyclopropyl-1H-pyrazol-3-yl)amino)-1-(2-methylbenzofuro[3,2-d]pyrimidin-4-yl)pyrrolidine-2-carboxylic acid]
inhibition of IRF3-dependent Luc expression [1]: reproducible inhibition | inhibition of IFNβ expression [3]: inhibit IFNβ expression | IC50 (cGAS [5]; [8]): 1000 to 10000 nM | IC50 (cGAS [5]; [7]): 100 to 500 nM

SMILES: O=C(O)[C@@H]1CCCN1c1nc(C2CCCC2)nc2c1oc1ccccc12 [Compound 12, (2-cyclopentylbenzofuro[3,2-d]pyrimidin-4-yl)-L-proline]
IC50 (cGAS [5]; [8]): > 10000 nM | IC50 (cGAS [5]; [7]): > 10000 nM

SMILES: O=C(O)[C@@H]1CCCN1c1nc(C2CC2)nc2c1oc1ccccc12 [Compound 8, (2-cyclopropylbenzofuro[3,2-d]pyrimidin-4-yl)-L-proline]
IC50 (cGAS [5]; [8]): > 10000 nM | IC50 (cGAS [5]; [7]): 1000 to 10000 nM

SMILES: O=C(O)[C@@H]1CCCN1c1nc(-c2ccccc2)nc2c1oc1ccccc12 [Compound 13, (2-phenylbenzofuro[3,2-d]pyrimidin-4-yl)-L-proline]
IC50 (cGAS [5]; [8]): > 10000 nM | IC50 (cGAS [5]; [7]): > 10000 nM

SMILES: O=C(NCCCNc1nc(Nc2cccc(NC(=O)N3CCCC3)c2)ncc1I)c1cccs1 [BX-795, reference compound]
inhibition of IRF3-dependent Luc expression [1]: dose-dependent inhibition | inhibition of NFκB-driven SEAP expression ([2]; THP-1 Dual cells): did not inhibit | effect on IRF3-driven Luc expression in THP1 cGAS KO cells stimulated with LPS (THP1 cGAS KO cells): inhibited with an expected potency

SMILES: Cc1nc(N2C[C@@H](Nc3n[nH]c4ccccc34)C[C@H]2C(=O)O)c2oc3ccccc3c2n1 [Compound 55, (2S,4S)-4-((1H-indazol-3-yl)amino)-1-(2-methylbenzofuro[3,2-d]pyrimidin-4-yl)pyrrolidine-2-carboxylic acid]
IC50 (cGAS [5]; [8]): 1000 to 10000 nM | IC50 (cGAS [5]; [7]): 500 to 1000 nM

SMILES: Cc1nc(N2C[C@@H](NC(=O)C3(c4ccncc4)CC3)C[C@H]2C(=O)O)c2oc3ccccc3c2n1 [Compound 62, (2S,4S)-1-(2-methylbenzofuro[3,2-d]pyrimidin-4-yl)-4-(1-(pyridin-4-yl)cyclopropane-1-carboxamido)pyrrolidine-2-carboxylic acid]
IC50 (cGAS [5]; [8]): 1000 to 10000 nM | IC50 (cGAS [5]; [7]): 500 to 1000 nM
